From US8415469B2, “Compounds and methods for kinase modulation, and indications therefor” (Plexxikon Inc., priority 2005, dated 2013)

Key:
Format in all cases: biochemical
Irak4 = molecular target: T1, Irak4 (Homo sapiens, UniProt Q9NWZ3); test: Z'-Lyte FRET kinase assay (Invitrogen), Irak4; conditions: read-out: IC50, activity toward kinase Irak4
T1 construct: purchased Invitrogen (assay run by Invitrogen)
T1 sequence (Q9NWZ3 1-460): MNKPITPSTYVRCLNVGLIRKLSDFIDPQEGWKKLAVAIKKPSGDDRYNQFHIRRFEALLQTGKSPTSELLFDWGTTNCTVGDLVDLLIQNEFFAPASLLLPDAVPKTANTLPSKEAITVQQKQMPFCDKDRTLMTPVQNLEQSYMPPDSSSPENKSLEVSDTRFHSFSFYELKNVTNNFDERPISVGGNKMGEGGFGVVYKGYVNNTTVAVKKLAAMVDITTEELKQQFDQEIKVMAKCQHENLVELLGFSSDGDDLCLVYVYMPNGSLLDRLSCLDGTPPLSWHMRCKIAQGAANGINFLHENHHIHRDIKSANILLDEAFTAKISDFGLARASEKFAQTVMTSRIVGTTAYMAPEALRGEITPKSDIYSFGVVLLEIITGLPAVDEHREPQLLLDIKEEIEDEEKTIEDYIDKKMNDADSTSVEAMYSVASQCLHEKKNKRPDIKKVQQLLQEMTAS
Source text: (§1) The effect of potential modulators of kinase activity can be measured in a variety of different assays known in the art. For example, direct radiometric, indirect FRET or AlphaScreen assays may be used to assess the level of phosphorylation of a substrate in the presence of test compounds in order to determine the inhibitory affect of the compound on the kinase. Invitrogen (Carlsbad, Calif.) uses a FRET based assay for Btk, EGFR, EphB2, Flt3, lrak4, Kdr, MAP2K1, MAPKAPK2, PDGFRB, PKC theta, Stk6 and Yes. For these assays, compounds of the invention were screened by Invitrogen using Z′-Lyte™ kinase assay.
Briefly, the Invitrogen kinase assay involves use of a specific peptide substrate optimized for each kinase, containing a fluorophore at each end that make up the FRET pair. The peptide sensitivity to proteolytic cleavage depends on phosphorylation of the peptide. Non-phosphorylated peptide is cleaved by a protease while peptide phosphorylated by the kinase is not cleaved. Cleavage of the peptide disrupts the FRET between the donor (coumarin) and acceptor (fluorescein) fluorophores, resulting in an increase in the ratio of donor emission to acceptor emission. The emission ratio of coumarin to fluorescein is used to assess the reaction progress. The extent of phosphorylation is determined from the emission ratio, which is low when the kinase is active (phosphorylated peptide is not cleaved, FRET pair connected) or higher for inhibited kinase (non-phosphorylated peptide is cleaved, FRET pair separated). Thus, the assay involves a kinase reaction in the presence of varying concentrations of a given compound, a development reaction with site specific protease, and detection of the fluorescent emission ratio of coumarin and fluorscein. […] Reaction conditions for each kinase are determined to provide optimal reaction times, incubation temperature, kinase and ATP concentrations. Test samples are made up in 1× kinase buffer (50 mM HEPES pH 7.5, 50 mM MgCl2, 5 mM EGTA, 0.05% BRIJ-35) and compound at desired concentration prepared in DMSO such that the final DMSO is 1%. […] Typically, assay plates are prepared to 10 μl final volume per sample, adding 2.5 μl of compound at 4× the desired concentration in 4% DMSO (serial dilution of compound provides concentration curve), 5 μl of the desired kinase mixed with Z′-LYTE™ peptide substrate (2× in 2× kinase buffer, final peptide at 2 μM), and 2.5 μl of 4×ATP solution. All kinase except for MAP2K1 were at 10 μM ATP in the kinase reaction, while MAP2K1 was at 100 μM. Samples are mixed and the kinase reaction is incubated 1 hour at room temperature, after which 5 μl of development solution is added and mixed. After incubation for another 1 hour at room temperature, 5 μl of stop reagent is added to each sample and mixed. The fluorescence signals are measured to determine the emission ratio.

Pim1 = molecular target: T2, Pim1 (Homo sapiens, UniProt P11309); test: AlphaScreen kinase assay, Pim1; conditions: read-out: IC50, activity toward kinase Pim1
T2 construct: P1215.pET29SRI PIM1 E29-K313 HIS WT; made in house
Source text: (§2) AlphaScreen assay was used to screen additional kinases. The assay is similarly dependent on the phosphorylation of a peptide substrate. In this assay, an antibody that recognizes phosphorylated substrate is bound to an acceptor bead. The peptide substrate is attached to biotin, which binds to a donor head that contains streptavidin. Thus phosphorylated substrate is bound by antibody and streptavidin, bringing the donor and acceptor heads into close proximity when kinase is not inhibited. The donor produces singlet oxygen which results in emission from the acceptor when they are in close proximity. Conversely, when kinase is inhibited, the donor and acceptor beads are not associated and the emission from the acceptor is reduced.
(§3) AlphaScreen assays were done using compounds dissolved in DMSO to a concentration of 20 mM. The compounds were diluted accordingly to the desired final concentrations in each sample well, using 1:3 serial dilution for a total of 8 concentration points.

MLK1 = MLK1 (Homo sapiens, UniProt P80192); test: AlphaScreen kinase assay, MLK1; conditions: read-out: IC50, activity toward kinase MLK1
Source text: as §2, §3

TrkA = TrkA (Homo sapiens, UniProt P04629); test: AlphaScreen kinase assay, TrkA; conditions: read-out: IC50, activity toward kinase TrkA
Source text: as §2, §3

p38 = molecular target: T3, p38 (Homo sapiens, UniProt Q16539); test: AlphaScreen kinase assay, p38; conditions: read-out: IC50, activity toward kinase p38
T3 construct: P4292.pET15S P38A M1-S360-X MKK6DD; His6 with thrombin site (N); made in house
Protocol: AlphaScreen assays were done using compounds dissolved in DMSO to a concentration of 20 mM. The compounds were diluted accordingly to the desired final concentrations in each sample well, using 1:3 serial dilution for a total of 8 concentration points. Plates were prepared such that each kinase reaction is 20 μl in 1× kinase buffer, 5% DMSO and 10 μM ATP. After incubation of the kinase reaction for 1 hour at room temperature, 5 μl of donor beads in stop buffer (50 mM EDTA in 1× kinase buffer) was added, the sample was mixed and incubated for 20 minutes at room temperature before adding 5 μl of acceptor beads in stop buffer. The samples were incubated for 60 minutes at room temperature and the signal per well was read on AlphaQuest reader.

PDGFRB = molecular target: T4, PDGFRB (Homo sapiens, UniProt P09619); test: Z'-Lyte FRET kinase assay (Invitrogen), PDGFRB; conditions: read-out: IC50, activity toward kinase PDGFRB
T4 construct: purchased Invitrogen (Carlsbad, Calif.), screening service
Source text: as §1
Briefly, the Invitrogen kinase assay involves use of a specific peptide substrate optimized for each kinase, containing a fluorophore at each end that make up the FRET pair. The peptide sensitivity to proteolytic cleavage depends on phosphorylation of the peptide. […] The extent of phosphorylation is determined from the emission ratio, which is low when the kinase is active (phosphorylated peptide is not cleaved, FRET pair connected) or higher for inhibited kinase (non-phosphorylated peptide is cleaved, FRET pair separated). […] Reaction conditions for each kinase are determined to provide optimal reaction times, incubation temperature, kinase and ATP concentrations. […] The fluorescence signals are measured to determine the emission ratio.

EphA2 = EphA2 (Homo sapiens, UniProt P29317); test: AlphaScreen kinase assay, EphA2; conditions: read-out: IC50, activity toward kinase EphA2
Source text: as §2, §3

EphB4 = EphB4 (Homo sapiens, UniProt P54760); test: AlphaScreen kinase assay, EphB4; conditions: read-out: IC50, activity toward kinase EphB4
Source text: as §2, §3

Sequence of EphB4 (P54760 16-987): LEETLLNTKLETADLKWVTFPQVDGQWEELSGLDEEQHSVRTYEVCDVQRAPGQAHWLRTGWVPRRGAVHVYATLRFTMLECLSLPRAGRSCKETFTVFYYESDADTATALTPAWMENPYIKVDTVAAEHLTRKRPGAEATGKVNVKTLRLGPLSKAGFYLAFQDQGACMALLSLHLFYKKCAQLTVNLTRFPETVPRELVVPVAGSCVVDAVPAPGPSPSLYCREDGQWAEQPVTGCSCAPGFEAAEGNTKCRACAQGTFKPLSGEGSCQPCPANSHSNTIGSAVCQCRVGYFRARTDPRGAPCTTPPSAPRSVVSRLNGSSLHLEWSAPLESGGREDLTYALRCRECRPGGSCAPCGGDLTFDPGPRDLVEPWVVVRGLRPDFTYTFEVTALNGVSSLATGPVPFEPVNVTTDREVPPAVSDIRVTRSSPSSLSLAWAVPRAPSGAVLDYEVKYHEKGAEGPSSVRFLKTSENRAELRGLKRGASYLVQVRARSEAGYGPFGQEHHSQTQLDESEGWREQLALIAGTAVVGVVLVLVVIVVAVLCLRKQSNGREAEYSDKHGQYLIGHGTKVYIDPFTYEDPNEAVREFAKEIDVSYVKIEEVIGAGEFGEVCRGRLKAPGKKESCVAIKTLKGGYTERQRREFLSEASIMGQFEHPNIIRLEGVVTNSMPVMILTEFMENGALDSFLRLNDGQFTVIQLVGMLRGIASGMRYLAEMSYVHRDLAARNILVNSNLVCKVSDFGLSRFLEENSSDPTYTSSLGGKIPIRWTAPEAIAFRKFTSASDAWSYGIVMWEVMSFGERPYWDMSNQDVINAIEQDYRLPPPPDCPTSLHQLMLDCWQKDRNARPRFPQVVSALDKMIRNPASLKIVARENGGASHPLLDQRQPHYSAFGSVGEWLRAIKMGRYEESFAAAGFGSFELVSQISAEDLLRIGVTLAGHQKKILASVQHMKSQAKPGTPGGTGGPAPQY
T2 sequence (P11309 with tags, fused parts or gaps): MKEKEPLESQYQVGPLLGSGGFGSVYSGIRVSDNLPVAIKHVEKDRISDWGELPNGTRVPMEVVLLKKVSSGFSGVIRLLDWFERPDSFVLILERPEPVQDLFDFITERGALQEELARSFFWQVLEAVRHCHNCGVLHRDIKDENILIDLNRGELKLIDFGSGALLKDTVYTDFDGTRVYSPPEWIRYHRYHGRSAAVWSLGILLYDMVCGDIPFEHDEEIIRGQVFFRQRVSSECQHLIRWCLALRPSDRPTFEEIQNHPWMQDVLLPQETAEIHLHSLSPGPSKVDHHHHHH
T4 sequence (P09619 33-1106): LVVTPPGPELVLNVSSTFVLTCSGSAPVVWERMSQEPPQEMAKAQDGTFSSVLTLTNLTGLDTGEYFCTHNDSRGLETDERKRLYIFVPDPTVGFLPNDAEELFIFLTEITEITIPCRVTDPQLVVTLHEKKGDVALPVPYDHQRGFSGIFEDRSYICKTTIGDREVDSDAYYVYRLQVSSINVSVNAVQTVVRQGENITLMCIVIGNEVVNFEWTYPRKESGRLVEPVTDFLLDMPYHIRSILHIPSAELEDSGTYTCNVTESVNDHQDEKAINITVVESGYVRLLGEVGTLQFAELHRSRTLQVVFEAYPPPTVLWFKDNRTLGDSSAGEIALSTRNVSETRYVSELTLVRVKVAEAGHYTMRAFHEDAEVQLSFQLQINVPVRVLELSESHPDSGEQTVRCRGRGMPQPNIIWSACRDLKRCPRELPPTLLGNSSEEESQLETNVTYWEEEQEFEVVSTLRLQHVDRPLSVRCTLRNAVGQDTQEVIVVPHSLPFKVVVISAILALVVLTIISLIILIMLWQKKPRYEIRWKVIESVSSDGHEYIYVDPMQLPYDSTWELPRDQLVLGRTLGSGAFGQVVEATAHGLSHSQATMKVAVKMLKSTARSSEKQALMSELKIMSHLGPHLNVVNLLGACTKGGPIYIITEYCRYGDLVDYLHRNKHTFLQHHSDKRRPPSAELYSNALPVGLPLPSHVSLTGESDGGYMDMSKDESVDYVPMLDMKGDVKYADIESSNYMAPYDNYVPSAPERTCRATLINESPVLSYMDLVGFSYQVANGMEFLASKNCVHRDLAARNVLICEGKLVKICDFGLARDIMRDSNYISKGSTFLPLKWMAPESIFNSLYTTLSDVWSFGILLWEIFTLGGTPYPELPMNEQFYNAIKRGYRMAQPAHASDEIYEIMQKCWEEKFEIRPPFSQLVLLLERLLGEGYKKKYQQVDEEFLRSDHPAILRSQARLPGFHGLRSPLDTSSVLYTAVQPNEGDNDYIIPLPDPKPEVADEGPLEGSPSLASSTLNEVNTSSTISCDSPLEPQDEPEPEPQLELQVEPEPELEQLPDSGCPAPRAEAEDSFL
Sequence of TrkA (P04629 33-796): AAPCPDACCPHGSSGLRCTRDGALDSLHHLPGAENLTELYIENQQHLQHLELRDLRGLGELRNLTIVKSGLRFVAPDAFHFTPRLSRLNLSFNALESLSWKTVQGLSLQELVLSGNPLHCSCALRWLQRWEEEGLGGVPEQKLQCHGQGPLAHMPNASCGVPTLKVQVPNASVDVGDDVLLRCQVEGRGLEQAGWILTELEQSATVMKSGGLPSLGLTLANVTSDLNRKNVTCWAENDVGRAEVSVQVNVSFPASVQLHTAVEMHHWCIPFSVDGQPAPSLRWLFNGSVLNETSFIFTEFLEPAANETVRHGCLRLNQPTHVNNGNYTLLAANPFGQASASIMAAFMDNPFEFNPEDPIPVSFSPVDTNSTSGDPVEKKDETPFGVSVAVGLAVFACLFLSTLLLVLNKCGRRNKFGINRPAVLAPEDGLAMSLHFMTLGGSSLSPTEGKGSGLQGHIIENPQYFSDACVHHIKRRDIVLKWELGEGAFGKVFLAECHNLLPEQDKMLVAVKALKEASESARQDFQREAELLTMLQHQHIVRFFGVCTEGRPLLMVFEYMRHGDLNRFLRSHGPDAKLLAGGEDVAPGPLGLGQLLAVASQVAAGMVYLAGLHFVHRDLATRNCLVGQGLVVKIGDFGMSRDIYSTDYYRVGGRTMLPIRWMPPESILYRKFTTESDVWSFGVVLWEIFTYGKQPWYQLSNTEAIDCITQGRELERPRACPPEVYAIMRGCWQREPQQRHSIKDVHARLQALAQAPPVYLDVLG
Sequence of EphA2 (P29317 24-976): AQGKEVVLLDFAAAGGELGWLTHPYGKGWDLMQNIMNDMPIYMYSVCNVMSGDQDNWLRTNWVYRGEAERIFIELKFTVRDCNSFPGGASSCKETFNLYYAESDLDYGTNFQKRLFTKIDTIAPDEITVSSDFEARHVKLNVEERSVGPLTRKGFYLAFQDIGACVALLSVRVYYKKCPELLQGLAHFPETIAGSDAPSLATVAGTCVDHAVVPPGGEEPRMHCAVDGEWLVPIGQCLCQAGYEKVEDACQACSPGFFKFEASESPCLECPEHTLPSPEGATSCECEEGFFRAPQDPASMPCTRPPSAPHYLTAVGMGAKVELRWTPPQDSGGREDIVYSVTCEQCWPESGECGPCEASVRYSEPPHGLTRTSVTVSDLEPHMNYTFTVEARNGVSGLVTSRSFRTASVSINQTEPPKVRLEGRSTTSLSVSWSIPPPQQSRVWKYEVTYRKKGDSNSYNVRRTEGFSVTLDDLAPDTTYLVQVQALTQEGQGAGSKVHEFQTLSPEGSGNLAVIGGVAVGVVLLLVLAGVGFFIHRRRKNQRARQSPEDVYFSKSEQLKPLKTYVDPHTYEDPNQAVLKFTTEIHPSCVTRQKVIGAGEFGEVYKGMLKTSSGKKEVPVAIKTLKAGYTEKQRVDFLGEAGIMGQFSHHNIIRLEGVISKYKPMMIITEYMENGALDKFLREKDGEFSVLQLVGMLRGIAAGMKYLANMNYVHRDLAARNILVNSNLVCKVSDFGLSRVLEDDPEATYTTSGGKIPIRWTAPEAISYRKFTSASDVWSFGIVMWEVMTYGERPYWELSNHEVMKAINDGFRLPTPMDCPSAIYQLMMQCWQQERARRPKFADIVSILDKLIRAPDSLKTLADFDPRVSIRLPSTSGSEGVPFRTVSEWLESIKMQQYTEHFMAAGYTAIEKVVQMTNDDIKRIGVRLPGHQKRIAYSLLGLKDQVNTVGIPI
T3 sequence (Q16539 with tags, fused parts or gaps): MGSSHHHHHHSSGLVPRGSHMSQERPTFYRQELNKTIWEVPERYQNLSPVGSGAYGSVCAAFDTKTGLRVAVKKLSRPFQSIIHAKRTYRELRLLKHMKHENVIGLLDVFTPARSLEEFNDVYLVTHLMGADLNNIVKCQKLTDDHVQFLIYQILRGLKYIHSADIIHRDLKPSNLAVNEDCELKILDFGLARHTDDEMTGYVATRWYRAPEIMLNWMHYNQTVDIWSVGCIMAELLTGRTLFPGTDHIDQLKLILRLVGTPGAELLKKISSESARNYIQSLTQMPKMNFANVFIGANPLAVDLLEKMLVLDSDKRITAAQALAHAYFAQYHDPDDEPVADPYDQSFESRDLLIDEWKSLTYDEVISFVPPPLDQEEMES

Q: How did the IC50 (Irak4) turn out when `Nc1cccc(-c2cnc3[nH]cc(C(=O)c4cc(O)ccc4F)c3c2)c1` [Compound P-0002] was run?
A: The IC50 was no more than 10 µM.

Q: How did the IC50 (Irak4) turn out when `CS(=O)(=O)c1cccc(-c2cnc3[nH]cc(C(O)c4c(F)ccc(F)c4F)c3c2)c1` (stereo not drawn) [Compound P-0020] was run?
A: Its IC50 is no more than 10 µM.

Q: With `O=C(c1ccc(O)cc1)c1c[nH]c2ncc(-c3cccs3)cc12` [Compound P-0024, (4-Hydroxy-phenyl)-(5-thiophen-2-yl-1H-pyrrolo[2,3-b]pyridin-3-yl)-methanone] as the compound, how does the IC50 (Pim1) read?
A: Its IC50 is no more than 10 µM.

Q: Which results are given for `COc1cc(OC)cc(C(=O)c2c[nH]c3ncc(-c4cccc(NS(C)(=O)=O)c4)cc23)c1` [Compound P-1426, N-{3-[3-(3,5-Dimethoxy-benzoyl)-1H-pyrrolo[2,3-b]pyridin-5-yl]-phenyl}-methanesulfonamide]?
A: IC50 (MLK1): ≤ 10 µM; IC50 (TrkA): ≤ 10 µM

Q: `O=C(O)/C=C/c1cccc(-c2cnc3[nH]cc(C(=O)c4cc(O)ccc4F)c3c2)c1` [Compound P-0010] was tested. Which IC50 (p38) did it give?
A: Its IC50 is no more than 10 µM.

Q: `CCCS(=O)(=O)Nc1ccc(F)c(C(=O)c2c[nH]c3ncc(-c4cccnc4)cc23)c1F` [Compound P-0088, Propane-1-sulfonic acid [2,4-difluoro-3-(5-pyridin-3-yl-1H-pyrrolo[2,3-b]pyridine-3-carbonyl)-phenyl]-amide] was tested. Which IC50 (PDGFRB) did it give?
A: Its IC50 is no more than 10 µM.

Q: How did the IC50 (MLK1) turn out when `COc1cccc(C(=O)c2c[nH]c3ncc(-c4cccc(NC(C)=O)c4)cc23)c1F` [Compound P-1336, N-{3-[3-(2-Fluoro-3-methoxy-benzoyl)-1H-pyrrolo[2,3-b]pyridin-5-yl]-phenyl}-acetamide] was run?
A: Its IC50 is no more than 10 µM.

Q: What about the IC50 (EphA2) of the same compound?
A: Its IC50 is no more than 10 µM.

Q: And the IC50 (EphB4)?
A: The IC50 was no more than 10 µM.

Q: `COc1ccc(F)c(C(=O)c2c[nH]c3ncc(-c4cccnc4)cc23)c1` [Compound P-0090] was tested. Which IC50 (Pim1) did it give?
A: The IC50 was no more than 10 µM.

Q: With `OCCOc1ccc(F)c(Cc2c[nH]c3ncc(-c4cccnc4)cc23)c1F` [Compound P-1394, 2-[2,4-Difluoro-3-(5-pyridin-3-yl-1H-pyrrolo[2,3-b]pyridin-3-ylmethyl)-phenoxy]-ethanol] as the compound, how does the IC50 (EphA2) read?
A: The IC50 was no more than 10 µM.

Q: With `O=C(Nc1ccc(Cc2c[nH]c3ncccc23)cc1)Nc1cccc(C(F)(F)F)c1` [Compound P-0262, 1-[4-(1H-Pyrrolo[2,3-b]pyridin-3-ylmethyl)-phenyl]-3-(3-trifluoromethyl-phenyl)-urea] as the compound, how does the IC50 (PDGFRB) read?
A: Its IC50 is no more than 10 µM.

Q: For `CCCS(=O)(=O)Nc1ccc(F)c(C(=O)c2c[nH]c3ncc(OC)cc23)c1F` [Compound P-0806, Propane-1-sulfonic acid [2,4-difluoro-3-(5-methoxy-1H-pyrrolo[2,3-b]pyridine-3-carbonyl)-phenyl]-amide], which IC50 (EphB4) is on record?
A: Its IC50 is no more than 10 µM.

Q: What about the IC50 (TrkA) of the same compound?
A: Its IC50 is no more than 10 µM.
